Columns and labels:
[1] = compared to other salts of R,R-formoterol; cited from earlier work
[2] = Dissolution studies: 17 wt % slurry in 50% aqueous isopropyl alcohol stirred with warming; assay type: physicochemical; details: listed as form A
Method: Dissolution studies were done on each polymorph. A 17 wt % slurry of the respective solid in 50% aqueous isopropyl alcohol was stirred with warming, and the temperature of dissolution was recorded.

[3] = factor; cited from earlier work

SMILES: COc1ccc(C[C@@H](C)NC[C@H](O)c2ccc(O)c(NC=O)c2)cc1.O=C(O)C(O)C(O)C(=O)O [L-(+)-tartrate salt of R,R-formoterol, (R,R)-formoterol L-tartrate]
- hygroscopicity [1]: non-hygroscopic

SMILES: COc1ccc(C[C@@H](C)NC[C@H](O)c2ccc(O)c(NC=O)c2)cc1.O=C(O)C(O)C(O)C(=O)O [Polymorph A, (R,R)-formoterol L-tartrate]
- temperature of dissolution [2]: 65-70 °C

SMILES: CCCCCCCCCCCCCCCC(=O)OC[C@@H](NC(=O)C(Cl)Cl)[C@H](O)c1ccc([N+](=O)[O-])cc1 [Chloramphenicol-3-palmitate]
- difference in bio-activity between form A and form B [3]: eight

Source: patent US6472563B1, “Formoterol tartrate process and polymorph” (Sepracor Inc., priority 2001, dated 2002)
